Where a SMILES comes first, the peptide text is derived from it. Bridges are numbered along the chain shown (N, C = ends). [ ]: non-standard residue; d: D form. Tle = CC(C)(C)[C@H](N)C(=O)O; Orn = NCCC[C@H](N)C(=O)O; Dab = NCC[C@H](N)C(=O)O; Dap = NC[C@H](N)C(=O)O; Sar = CNCC(=O)O
Key:
Type in all cases: cell-based
[1] = test system: human red blood cells (hRBC); test: Hemolysis of human red blood cells; conditions: red cells of human, 1 h, 100 μg/mL
How it was run: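 Peptides at 100 μg/mL were incubated with PBS-washed fresh human erythrocytes (20% v/v, ~0.9×10^9 cells/mL final) for 1 h at 37° C. with shaking. Supernatant OD540 was read after 8-fold dilution; percent hemolysis was expressed relative to the 2.5% Triton X-100 full-lysis control, with PBS/0.001% acetic acid as 0%.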

[2] = test system: Escherichia coli ATCC 25922; conditions: ATCC 25922
How it was run: (§1)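 Peptide MICs were determined by CLSI broth microdilution in cation-adjusted Mueller-Hinton II broth with 0.002% polysorbate 80, inoculum approx. 10^6 CFU/mL. Two-fold serial dilutions of peptide were tested. MIC was the lowest concentration (μg/mL) with no visible growth after 18-20 hours at 35° C.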

[3] = test system: Pseudomonas aeruginosa ATCC 27853; conditions: ATCC 27853
How it was run: as §1

[4] = test system: Acinetobacter baumannii 872842; conditions: 872842
[5] = test system: Klebsiella pneumoniae 968733; conditions: 968733
[6] = test system: Acinetobacter baumannii DSM 30008; conditions: DSM 30008
How it was run: as §1

[7] = test system: Escherichia coli 926415; conditions: 926415
[8] = test system: Klebsiella pneumoniae SSI #3010; conditions: SSI #3010
How it was run: as §1

SMILES | Hemolysis at 100 μg/mL [1] [%] | Escherichia coli ATCC 25922 MIC [2] [µg/mL] | Pseudomonas aeruginosa ATCC 27853 MIC [3] [µg/mL] | Acinetobacter baumannii 872842 MIC [4] [µg/mL] | Klebsiella pneumoniae 968733 MIC [5] [µg/mL] | Acinetobacter baumannii DSM 30008 MIC [6] [µg/mL] | Escherichia coli 926415 MIC [7] [µg/mL] | Klebsiella pneumoniae SSI #3010 MIC [8] [µg/mL]
CC(=O)N[C@@H](Cc1c[nH]c2ccccc12)C(=O)N[C@H]1CSSC[C@@H](C(=O)N[C@@H](CCCN)C(=O)N[C@H](C(=O)N[C@@H](CCN)C(=O)N[C@H]2CCNC(=O)[C@H]([C@@H](C)O)NC(=O)[C@H](CCN)NC(=O)[C@H](CCN)NC(=O)[C@H](CC(C)C)NC(=O)[C@@H](Cc3ccccc3)NC(=O)[C@H](CCN)NC2=O)[C@@H](C)O)NC(=O)[C@H](Cc2ccc(O)cc2)NC(=O)[C@H](CO)NC(=O)[C@H](CC(C)C)NC(=O)[C@@H]2CCCN2C(=O)[C@H]2CCCN2C(=O)[C@H](CO)NC(=O)[C@H](C)NC(=O)[C@H](Cc2c[nH]c3ccccc23)NC1=O [Ex. 111] (Ac-WCWAS[dP]PLSYC[Orn]T[Dab][Dab][Dab][dF]L[Dab][Dab]T; disulfide 2-11; lactam 15-C) | 2 | 0.25 | 1 | 0.25 | 1 | 0.25 | 0.25 | 1
CC(C)C[C@@H]1NC(=O)[C@@H](CC(C)C)NC(=O)[C@H](CCN)NC(=O)[C@@H](NC(=O)[C@H](CCN)NC(=O)[C@@H](NC(=O)[C@H](CCN)NC(=O)CN(C)C(=O)[C@@H]2CSSC[C@H](NC(=O)[C@@H](N)Cc3c[nH]c4ccccc34)C(=O)N[C@@H](C(C)(C)C)C(=O)N[C@@H](Cc3ccc(O)cc3)C(=O)N[C@@H](CO)C(=O)N3CCC[C@@H]3C(=O)N3CCC[C@H]3C(=O)N[C@@H](CC(C)C)C(=O)N[C@@H](CN)C(=O)N[C@@H](Cc3ccc(O)cc3)C(=O)N2)[C@@H](C)O)CCNC(=O)[C@H]([C@@H](C)O)NC(=O)[C@H](CCN)NC(=O)[C@H](CCN)NC1=O [Ex. 140] (H-WC[Tle]YS[dP]PL[Dap]YC[Sar][Dab]T[Dab][Dab][Dab][dL]L[Dab][Dab]T; disulfide 2-11; lactam 16-C) | <1 | 0.0625 | 0.5 | 0.125 | 1 | 0.125 | 0.125 | 0.0625
CC(C)C[C@@H]1NC(=O)[C@@H](CC(C)C)NC(=O)[C@H](CCN)NC(=O)[C@@H](NC(=O)[C@H](CCN)NC(=O)[C@@H](NC(=O)[C@H](CCN)NC(=O)CN(C)C(=O)[C@@H]2CSSC[C@H](NC(=O)[C@@H](N)CC(C)C)C(=O)N[C@@H](C(C)C)C(=O)N[C@@H](CO)C(=O)N[C@@H](CO)C(=O)N3CCC[C@@H]3C(=O)N3CCC[C@H]3C(=O)N[C@@H](CC(C)C)C(=O)N[C@@H](CN)C(=O)N[C@@H](Cc3ccc(O)cc3)C(=O)N2)[C@@H](C)O)CCNC(=O)[C@H]([C@@H](C)O)NC(=O)[C@H](CCN)NC(=O)[C@H](CCN)NC1=O [Ex. 159] (H-LCVSS[dP]PL[Dap]YC[Sar][Dab]T[Dab][Dab][Dab][dL]L[Dab][Dab]T; disulfide 2-11; lactam 16-C) | <1 | 0.5 | 2 | 0.25 | 8 | 0.5 | 2 | 1

— US10829520B2, “Beta-hairpin peptidomimetics” (POLYPHOR AG, priority 2015, dated 2020)
